1 compound from patent publication US20090005363A1, “Organic Compounds” (priority 2005, published 2009) can be followed below.

The structures appear in SMILES notation. Counter-ions that a name gives are not always drawn.

This assay has as its target mGluR5 (Homo sapiens, UniProt P41594). As to the kind of experiment: inhibition of the glutamate induced elevation of intracellular Ca2+ concentration. Particulars: read-out: mGluR5 Activity inh. at 10 μM [%].

mGluR5, sequence (P41594 21-1180 isoform P41594-2 limits assumed): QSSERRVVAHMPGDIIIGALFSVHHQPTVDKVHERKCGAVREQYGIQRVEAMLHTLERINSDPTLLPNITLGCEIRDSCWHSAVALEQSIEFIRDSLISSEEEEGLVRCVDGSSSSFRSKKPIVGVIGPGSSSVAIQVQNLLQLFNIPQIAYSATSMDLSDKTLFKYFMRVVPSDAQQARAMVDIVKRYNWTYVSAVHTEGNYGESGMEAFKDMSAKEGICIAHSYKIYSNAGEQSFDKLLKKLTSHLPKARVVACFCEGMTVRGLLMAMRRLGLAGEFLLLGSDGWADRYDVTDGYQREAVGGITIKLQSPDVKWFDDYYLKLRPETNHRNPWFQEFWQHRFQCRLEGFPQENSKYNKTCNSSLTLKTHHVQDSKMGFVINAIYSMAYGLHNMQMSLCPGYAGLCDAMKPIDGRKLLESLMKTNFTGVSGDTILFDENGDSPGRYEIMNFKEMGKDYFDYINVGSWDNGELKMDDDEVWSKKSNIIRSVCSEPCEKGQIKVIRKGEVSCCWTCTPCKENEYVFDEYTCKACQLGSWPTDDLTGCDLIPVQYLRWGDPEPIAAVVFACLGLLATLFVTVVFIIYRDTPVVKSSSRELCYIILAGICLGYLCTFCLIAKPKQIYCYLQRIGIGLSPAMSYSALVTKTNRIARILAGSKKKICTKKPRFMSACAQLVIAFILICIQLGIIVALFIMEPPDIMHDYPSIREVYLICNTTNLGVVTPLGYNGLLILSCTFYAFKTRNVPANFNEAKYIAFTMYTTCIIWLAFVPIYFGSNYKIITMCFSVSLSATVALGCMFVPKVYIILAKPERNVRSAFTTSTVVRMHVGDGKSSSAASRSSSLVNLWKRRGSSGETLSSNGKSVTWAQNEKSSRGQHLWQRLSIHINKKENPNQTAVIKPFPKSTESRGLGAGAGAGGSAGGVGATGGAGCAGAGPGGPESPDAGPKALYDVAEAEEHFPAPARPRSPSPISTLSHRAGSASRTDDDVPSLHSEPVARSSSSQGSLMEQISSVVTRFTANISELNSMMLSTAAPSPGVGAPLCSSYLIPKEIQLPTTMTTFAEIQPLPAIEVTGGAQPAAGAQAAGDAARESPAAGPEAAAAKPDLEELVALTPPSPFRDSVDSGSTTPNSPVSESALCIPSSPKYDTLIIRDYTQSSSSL
Description: This can be determined in vitro for example at recombinant human metabotropic glutamate receptors, especially PLC-coupled subtypes thereof such as mGluR5, using different procedures like, for example, measurement of the inhibition of the agonist induced elevation of intracellular Ca^2+ concentration in accordance with L. P. Daggett et al., Neuropharm.

On to `C[C@@H]1CN(C(=O)c2ccc(Nc3ccc(Cl)cc3)nc2)C[C@H](C)O1` [Compound 1.19, cis-[6-(4-Chloro-phenylamino)-pyridin-3-yl]-(2,6-dimethyl-morpholin-4-yl)-methanone hydrochloride], for which the inhibition at 10 µM is 94%.
